Reference: patent US20200260700A1, “Transgenic Insect and Use of Same in Methods for Testing Natural or Synthetic Substances” (Robert Bosch Gesellschaft für Medizinische Forschung mbH, priority 2017, published 2020)

Molecular target: human SLC22A1/OCT1 protein (Homo sapiens, UniProt O15245)
Details: ethidium bromide and cimetidine simultaneously injected into ventral side of Drosophila melanogaster embryos expressing OCT1/SLC22A1 reference sequence in salivary glands (GAL4/UAS); confocal laser scanning microscopy
Description: The salivary glands are moreover characterized by the tissue-specific expression of GFP. These living embryos were injected with 0.5 μM ethidium bromide. The accumulation of ethidium bromide in the salivary glands was visualized by confocal laser scanning microscopy.
The salivary glands are moreover characterized by the tissue-specific expression of GFP. Ethidium bromide and cimetidine were simultaneously injected into the ventral side of the embryos.

Chain of human SLC22A1/OCT1 protein (O15245 whole entry, the tested form may be a part): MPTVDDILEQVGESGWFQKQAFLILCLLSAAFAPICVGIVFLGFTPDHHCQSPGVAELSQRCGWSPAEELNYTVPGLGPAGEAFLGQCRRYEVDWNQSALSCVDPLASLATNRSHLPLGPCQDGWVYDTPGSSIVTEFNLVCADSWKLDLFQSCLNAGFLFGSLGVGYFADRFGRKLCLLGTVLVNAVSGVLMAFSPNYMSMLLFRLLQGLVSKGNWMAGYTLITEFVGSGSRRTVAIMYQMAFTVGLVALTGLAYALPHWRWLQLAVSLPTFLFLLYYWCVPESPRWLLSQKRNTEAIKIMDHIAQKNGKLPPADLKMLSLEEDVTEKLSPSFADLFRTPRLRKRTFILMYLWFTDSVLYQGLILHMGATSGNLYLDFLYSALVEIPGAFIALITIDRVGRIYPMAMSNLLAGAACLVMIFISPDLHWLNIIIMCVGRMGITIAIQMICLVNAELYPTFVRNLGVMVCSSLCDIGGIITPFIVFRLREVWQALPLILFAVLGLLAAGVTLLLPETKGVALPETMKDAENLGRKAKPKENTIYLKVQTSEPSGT

- inhibition of the uptake of ethidium bromide: concentration-dependent
SMILES: CN/C(=N/CCSCc1nc[nH]c1C)NC#N [cimetidine]
